Where a name gives a salt, the structure may show the parent alone. Read-outs that look alike come from different tables or passages of the source.
Key:
IL-23 (p19/p40) = assay: IL23-p19 ELISA, Dendritic, LPS (compound screening using DC cells); format: cell-based, Human
Summary of the method: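 Human PBMC-derived dendritic cells (7 d GM-CSF 100 ng/ml + IL-4 20 ng/ml), primed 24 h with IFNγ 50 ng/ml, pre-incubated 1 h with compound, then stimulated 18 h with LPS 1 μg/ml. Supernatant IL-23 measured by p19-capture/p40-detection chemiluminescent ELISA; CellTiter Glo checks cytotoxicity.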

IL-23p19 = assay: LPS induced IL23p19 in THP-1 cells (with IFNγ primed) assay; format: cell-based, Human
Summary of the method: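 THP-1 cells primed ~18 h with IFNγ (50 ng/mL), pre-incubated 1 h with compound at 37 °C, then stimulated 18 h with LPS (1 ug/mL final). Supernatant IL-23p19 measured by sandwich ELISA with chemiluminescent read-out; EC50 from curve fitting. Toxicity checked on the remaining cells by Cell Titer Glo.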

[1] = Homo sapiens, 18 h, PBMC-derived DC cells, IFNγ primed, LPS 1 μg/ml, 18 hours, 10 pt, read-out: IL23-p19 ELISA, Dendritic, LPS, 10 pt, EC50
[2] = Homo sapiens, THP-1, 18 h, THP-1 cells, IFNγ primed, LPS 1 ug/mL, 18 hours, 10 pt, read-out: IL23-p19 ELISA, THP1-IFNy, LPS, 10 pt EC50
[3] = PBMC-derived DC cells, IFNγ primed, LPS 1 μg/ml, 18 hours, 10 pt, read-out: IL23-p19 ELISA, Dendritic, LPS, 10 pt, EC50
[4] = THP-1 cells, IFNγ primed, LPS 1 ug/mL, 18 hours, 10 pt, read-out: IL23-p19 ELISA, THP1-IFNy, LPS, 10 pt EC50

Row | Compound | EC50 (IL-23 (p19/p40); [1]) [µM] | EC50 (IL-23p19; [2]) [µM] | also measured
1 | COCCOCCn1cc(NC(=O)c2csc(-c3c[nH]nc3C)n2)c(-c2ccccn2)n1 [II-39, N-(1-(2-(2-methoxyethoxy)ethyl)-3-(pyridin-2-yl)-1H-pyrazol-4-yl)-2-(3-methyl-1H-pyrazol-4-yl)thiazole-4-carboxamide] | 0.178 | 0.167 | 
2 | Cn1cc(NC(=O)c2ccc(-c3cn[nH]c3)o2)c(-c2ccccn2)n1 [Compound I-77, N-{1-Methyl-3-(pyridine-2-yl)-1H-pyrazol-4-yl}-5-(1H-pyrazol-4-yl)furan-2-carboxamide, free base] |  |  | EC50 (IL-23 (p19/p40); [3]): 0.041 µM; EC50 (IL-23p19; [4]): 0.0504 µM
3 | CN1CC(n2cc(NC(=O)c3ccc(-c4cn[nH]c4)o3)c(-c3ccccn3)n2)C1 [Compound I-101, N-{1-(1-Methylazetidin-3-yl)-3-(pyridine-2-yl)-1H-pyrazol-4-yl}-5-(1H-pyrazol-4-yl)furan-2-carboxamide, formate salt] | 0.0501 | 0.0143 | 
4 | [2H]C([2H])([2H])C([2H])([2H])O[C@H]1C[C@@H](n2cc(NC(=O)c3csc(-c4cn[nH]c4)n3)c(-c3ccccn3)n2)C1 [II-127, N-(1-((1s,3s)-3-(ethoxy-d5)cyclobutyl)-3-(pyridin-2-yl)-1H-pyrazol-4-yl)-2-(1H-pyrazol-4-yl)thiazole-4-carboxamide] | 0.081 | 0.0487 | 
5 | CCOCCn1cc(NC(=O)c2ccc(-c3cn[nH]c3)o2)c(-c2nccs2)n1 [Compound I-118, N-(1-(2-ethoxyethyl)-3-(thiazol-2-yl)-1H-pyrazol-4-yl)-5-(1H-pyrazol-4-yl)furan-2-carboxamide formate] |  |  | EC50 (IL-23 (p19/p40); PBMC-derived DC cells, IFNγ primed, LPS 1 μg/ml, 18 hours, 10 pt, formate, read-out: IL23-p19 ELISA, Dendritic, LPS, 10 pt, EC50): 0.161 µM; EC50 (IL-23p19; THP-1 cells, IFNγ primed, LPS 1 ug/mL, 18 hours, 10 pt, formate, read-out: IL23-p19 ELISA, THP1-IFNy, LPS, 10 pt EC50): 0.0681 µM
6 | COCCn1cc(NC(=O)c2ccc(-c3cnn(COP(=O)(OC(C)(C)C)OC(C)(C)C)c3)o2)c(-c2ccccn2)n1 [Compound I-10, di-tert-butyl ((4-(5-((1-(2-methoxyethyl)-3-(pyridin-2-yl)-1H-pyrazol-4-yl)carbamoyl)furan-2-yl)-1H-pyrazol-1-yl)methyl) phosphate] | 3.27 | 21.9 | 
7 | O=C(Nc1cn([C@H]2C[C@H](OCC(F)(F)F)C2)nc1-c1ccccn1)c1ccc(-c2cn[nH]c2)o1 [Compound I-128, 5-(1H-pyrazol-4-yl)-N-(3-(pyridin-2-yl)-1-(3-(2,2,2-trifluoroethoxy)cyclobutyl)-1H-pyrazol-4-yl)furan-2-carboxamide formate] | 0.0604 | 0.134 | 
8 | COCCOCCn1cc(NC(=O)c2csc(-c3cn[nH]c3)n2)c(-c2ccccn2)n1 [II-37, N-(1-(2-(2-methoxyethoxy)ethyl)-3-(pyridin-2-yl)-1H-pyrazol-4-yl)-2-(1H-pyrazol-4-yl)thiazole-4-carboxamide] | 0.193 | 0.129 | 
9 | CCO[C@H]1C[C@@H](n2cc(NC(=O)c3csc(-c4c[nH]nc4C)n3)c(-c3cccc(C(F)(F)F)n3)n2)C1 [II-99, N-(1-((1,3-cis)-3-ethoxycyclobutyl)-3-(6-(trifluoromethyl)pyridin-2-yl)-1H-pyrazol-4-yl)-2-(3-methyl-1H-pyrazol-4-yl)thiazole-4-carboxamide] | 0.989 | 0.42 | 
10 | COCCn1cc(NC(=O)c2ccc(-c3cn[nH]c3)o2)c(-c2ccccn2)n1 [Compound I-5, N-(1-(2-methoxyethyl)-3-(pyridin-2-yl)-1H-pyrazol-4-yl)-5-(1H-pyrazol-4-yl)furan-2-carboxamide] | 0.136 | 0.0826 | 
11 | O=C(Nc1cn(C2CC(OCc3ccccc3)C2)nc1-c1ccccn1)c1ccc(-c2cn[nH]c2)o1 (stereo not drawn) [Compound I-73, N-{1-(3-Benzyloxy)cyclobutyl)-3-(pyridine-2-yl)-1H-pyrazol-4-yl}-5-(1H-pyrazol-4-yl)furan-2-carboxamide, Trans isomer] | 0.41 | 0.697 | 
12 | O=C(Nc1cn([C@H]2C[C@@H](OCCF)C2)nc1-c1ccccn1)c1csc(-c2cn[nH]c2)n1 [II-130, N-(1-((1s,3s)-3-(2-fluoroethoxy)cyclobutyl)-3-(pyridin-2-yl)-1H-pyrazol-4-yl)-2-(1H-pyrazol-4-yl)thiazole-4-carboxamide] | 0.0898 | 0.056 | 
13 | O=C(Nc1cn([C@H]2C[C@@H](O)C2)nc1-c1cnccn1)c1csc(-c2cn[nH]c2)n1 [II-101, N-(1-((1,3-cis)-3-hydroxycyclobutyl)-3-(pyrazin-2-yl)-1H-pyrazol-4-yl)-2-(1H-pyrazol-4-yl)thiazole-4-carboxamide] | 0.0355 | 0.023 | 
14 | Cn1cc(NC(=O)c2ccc(-c3cn[nH]c3)o2)c(-c2ccc(OC3COC3)cn2)n1 [Compound I-108, N-(1-methyl-3-(5-(oxetan-3-yloxy)pyridin-2-yl)-1H-pyrazol-4-yl)-5-(1H-pyrazol-4-yl)furan-2-carboxamide] | 0.73 | 0.491 | 
15 | O=C(Nc1cn([C@H]2CC[C@H](O)CC2)nc1-c1ccccn1)c1csc(-c2cn[nH]c2)n1 [II-143, N-(1-((trans)-4-hydroxycyclohexyl)-3-(pyridin-2-yl)-1H-pyrazol-4-yl)-2-(1H-pyrazol-4-yl)thiazole-4-carboxamide] | 0.0164 | 0.0308 | 
16 | O=C(Nc1cn(C2CCOCC2)nc1-c1nnco1)c1csc(-c2cn[nH]c2)n1 [II-75, N-(3-(1,3,4-oxadiazol-2-yl)-1-(tetrahydro-2H-pyran-4-yl)-1H-pyrazol-4-yl)-2-(1H-pyrazol-4-yl)thiazole-4-carboxamide] | 0.537 | 2.49 | 
17 | COCCn1cc(NC(=O)c2csc(-c3c[nH]nc3C)n2)c(-c2ccccn2)n1 [II-29, N-(1-(2-methoxyethyl)-3-(pyridin-2-yl)-1H-pyrazol-4-yl)-2-(3-methyl-1H-pyrazol-4-yl)thiazole-4-carboxamide, formic acid salt] | 0.248 | 0.135 | 
18 | O=C(Nc1cn(C2CN(C(=O)C3CC3)C2)nc1-c1ccccn1)c1ccc(-c2cn[nH]c2)o1 [Compound I-89, N-[1-{1-(Cyclopropanecarbonyl)azetidin-3-yl}-3-(pyridine-2-yl)-1H-pyrazol-4-yl]-5-(1H-pyrazol-4-yl)furan-2-carboxamide, formate salt] | 0.0231 | 0.0166 | 
19 | CCOCCn1cc(NC(=O)c2csc(-c3cn[nH]c3)n2)c(-c2ccccn2)n1 [II-25, N-(1-(2-ethoxyethyl)-3-(pyridin-2-yl)-1H-pyrazol-4-yl)-2-(1H-pyrazol-4-yl)thiazole-4-carboxamide] |  |  | EC50 (IL-23 (p19/p40); [3]): 0.17 µM; EC50 (IL-23p19; [4]): 0.146 µM
20 | O=C(Nc1cn(CCOCC(F)(F)F)nc1-c1ccccn1)c1coc(-c2cc[nH]n2)n1 [III-7, 2-(1H-pyrazol-3-yl)-N-(3-(pyridin-2-yl)-1-(2-(2,2,2-trifluoroethoxy)ethyl)-1H-pyrazol-4-yl)oxazole-4-carboxamide] | 0.451 | 0.0853 | 
21 | Cn1cc(NC(=O)c2csc(-c3cnn(COP(=O)(O)O)c3)n2)c(-c2ccccn2)n1 [II-38, Potassium (4-(4-((1-methyl-3-(pyridin-2-yl)-1H-pyrazol-4-yl)carbamoyl)thiazol-2-yl)-1H-pyrazol-1-yl)methyl phosphate] |  |  | EC50 (IL-23 (p19/p40); Homo sapiens, 18 h, read-out: IL23-p19 ELISA, Dendritic, LPS, 10 pt, EC50 (μM)): 0.771 µM; EC50 (IL-23p19; Homo sapiens, THP-1, 18 h, read-out: IL23-p19 ELISA, THP1-IFNy, LPS, 10 pt EC50 (μM)): 0.505 µM
22 | O=C(Nc1cn(C2CN(CC(F)(F)F)C2)nc1-c1ccccn1)c1ccc(-c2cn[nH]c2)o1 [Compound I-97, TFA salt] | 0.0329 | 0.0362 | 
23 | CC(C)[C@H](NC(=O)OC(C)(C)C)C(=O)n1cc(-c2nc(C(=O)Nc3cn(C)nc3-c3ccccn3)cs2)cn1 [II-3, tert-butyl (S)-(3-methyl-1-(4-(4-((1-methyl-3-(pyridin-2-yl)-1H-pyrazol-4-yl)carbamoyl)thiazol-2-yl)-1H-pyrazol-1-yl)-1-oxobutan-2-yl)carbamate] | 0.371 | 0.198 | 
24 | CCO[C@H]1CC[C@H](n2cc(NC(=O)c3csc(-c4cn[nH]c4)n3)c(-c3ncc(F)cc3F)n2)CC1 [II-180, N-(3-(3,5-difluoropyridin-2-yl)-1-((1r,4r)-4-ethoxycyclohexyl)-1H-pyrazol-4-yl)-2-(1H-pyrazol-4-yl)thiazole-4-carboxamide] | 0.263 | 0.0802 | 
25 | O=C(Nc1cn([C@H]2C[C@@H](O)C2)nc1-c1ncccc1F)c1csc(-c2cn[nH]c2)n1 [II-65, N-(3-(3-fluoropyridin-2-yl)-1-((1s,3s)-3-hydroxycyclobutyl)-1H-pyrazol-4-yl)-2-(1H-pyrazol-4-yl)thiazole-4-carboxamide] | 0.0489 | 0.0373 | 
26 | Cn1cc(NC(=O)c2csc(-c3cn[nH]c3)n2)c(C(F)(F)F)n1 [II-63, N-(1-methyl-3-(trifluoromethyl)-1H-pyrazol-4-yl)-2-(1H-pyrazol-4-yl)thiazole-4-carboxamide trifluoroacetate salt] | 5.45 | 20.8 | 
